Results as given in ChEMBL document CHEMBL3997831, “Synthesis and evaluation of prodrugs of corticotropin-releasing factor-1 (CRF1) receptor antagonist BMS-665053 leading to improved oral bioavailability” (Bioorg Med Chem Lett, 2017).
In brackets after ≈: the same amount, converted by molar mass.

Experiments:
[1] = Thermodynamic equilibrium aqueous solubility in pH 1 solution at 1 mg/ml after 15 to 24 hrs by UV-HPLC method; assay type: physicochemical; conditions: aqueous pH 1 solution, read-out: Therm_solubility
[2] = tested on: Rattus norvegicus; test: (§1) AUC (0 to 24 hrs) in Sprague-Dawley rat at 10 mg/kg, po by LC-MS/MS analysis; assay type: ADME, organism-based; design: dose 10 mg/kg, time < 24 hr, route oral; conditions: in vivo, 24 h, BLD = below limit of detection
[3] = Thermodynamic equilibrium aqueous solubility in pH 6.5 solution at 1 mg/ml after 15 to 24 hrs by UV-HPLC method; assay type: physicochemical; conditions: for solubility thermodynamic: aqueous pH 6.5 solution, read-out: Therm_solubility
[4] = tested on: Rattus norvegicus; test: (§2) Cmax in Sprague-Dawley rat at 10 mg/kg, po by LC-MS/MS analysis; assay type: ADME, organism-based; design: dose 10 mg/kg, route oral; conditions: in vivo, BLD = below limit of detection
[5] = tested on: Plasma; test: Prodrug activation in Sprague-Dawley rat assessed as BMS-665053 level in plasma at 10 mg/kg, po by LC-MS/MS analysis; assay type: organism-based; conditions: in vivo
[6] = as §1; assay type: ADME, organism-based; design: dose 10 mg/kg, time < 24 hr, route oral; conditions: Sprague-Dawley, in vivo
[7] = Stability in pH 1 buffer by HPLC method; assay type: physicochemical
[8] = as §2; assay type: ADME, organism-based; design: dose 10 mg/kg, route oral; conditions: Sprague-Dawley, in vivo
[9] = Oral bioavailability in Sprague-Dawley rat at 10 mg/kg by LC-MS/MS analysis; assay type: ADME, organism-based; conditions: in vivo
[10] = Prodrug activation in pH 7 buffer assessed as BMS-665053 formation after 10 mins by HPLC method
[11] = Stability in pH 1 buffer after 8 hrs by HPLC method; assay type: physicochemical; conditions: pH 1, 8 h
[12] = Stability in pH 7 buffer after 8 hrs by HPLC method; assay type: physicochemical; conditions: pH 7, 8 h
[13] = molecular target: T1, Alkaline phosphatase, tissue-nonspecific isozyme (Homo sapiens, UniProt P05186); test: (§3) Drug metabolism treated with 3-(Phosphonooxy)propyl (S)-(6-chloro-4-(1-cyclopropylethyl)-3-oxo-3,4-dihydropyrazin-2-yl)(2,6-dichloro-4-(difluoromethoxy)phenyl)carbamate, disodium salt assessed as alkaline phosphatase (unknown origin)-mediated compound conversion after 120 mins by LC-MS analysis; assay type: ADME; conditions: 2 h
T1 sequence (P05186 whole entry): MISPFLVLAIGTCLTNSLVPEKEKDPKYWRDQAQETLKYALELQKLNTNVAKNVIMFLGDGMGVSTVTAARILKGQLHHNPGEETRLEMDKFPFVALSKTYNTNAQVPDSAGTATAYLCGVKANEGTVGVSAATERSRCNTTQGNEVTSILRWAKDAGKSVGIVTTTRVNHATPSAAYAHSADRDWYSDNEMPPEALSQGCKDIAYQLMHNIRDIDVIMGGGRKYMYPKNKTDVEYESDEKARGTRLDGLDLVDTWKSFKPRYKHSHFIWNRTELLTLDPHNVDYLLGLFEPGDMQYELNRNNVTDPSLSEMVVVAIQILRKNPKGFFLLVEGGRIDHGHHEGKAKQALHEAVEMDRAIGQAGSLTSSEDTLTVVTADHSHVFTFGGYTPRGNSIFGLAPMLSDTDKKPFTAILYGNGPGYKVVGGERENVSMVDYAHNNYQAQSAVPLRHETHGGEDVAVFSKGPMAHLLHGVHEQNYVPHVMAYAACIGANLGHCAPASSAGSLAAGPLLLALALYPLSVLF

[14] = molecular target: T1, Alkaline phosphatase, tissue-nonspecific isozyme; test: as §3, with “2,2-Dimethyl-3-(phosphonooxy)propyl” for “3-(Phosphonooxy)propyl”; assay type: ADME; conditions: 2 h

SMILES | solubility thermodynamic [1] [µg/mL] | solubility thermodynamic [3] [µg/mL] | Drug metabolism [5] | AUC(0-t) at 24 h [6] [µM·h] | Cmax [8] [nM] | bioavailability [9] [%] | other results
C[C@@H](C1CC1)n1cc(Cl)nc(N(C(=O)OCC(C)(C)COP(=O)([O-])[O-])c2c(Cl)cc(OC(F)F)cc2Cl)c1=O.[Na+].[Na+] | 50 | > 1500 | Metabolite_Notdetected | – | – | – | AUC [2]: Bld; Cmax [4]: Bld
C[C@@H](C1CC1)n1cc(Cl)nc(Nc2c(Cl)cc(OC(F)F)cc2Cl)c1=O | 7 (≈ 16.5 µM) | < 1 | – | 1.26 | – | – | –
C[C@@H](C1CC1)n1cc(Cl)nc(N(C(=O)OCOP(=O)(O)O)c2c(Cl)cc(OC(F)F)cc2Cl)c1=O | 338 (≈ 584 µM) | – | 23 %ID | 3.99 | 460 | 17 | Stability [7]: Stable; Therm_solubility ([3]; buffer): Nd(Unstable); Drug metabolism [10]: Metabolite detected
C[C@@H](C1CC1)n1cc(Cl)nc(N(C(=O)OCCCOP(=O)([O-])[O-])c2c(Cl)cc(OC(F)F)cc2Cl)c1=O.[Na+].[Na+] | 4 | 1500 | – | 4.23 | 295 | 18 | Stability [11]: Stable; Stability [12]: Stable
C[C@@H](C1CC1)n1cc(Cl)nc(N(COP(=O)([O-])[O-])c2c(Cl)cc(OC(F)F)cc2Cl)c1=O.[Na+].[Na+] | – | – | – | 5.99 | 2150 | 25 | –
C[C@@H](C1CC1)n1cc(Cl)nc(N(C(=O)OCCCO)c2c(Cl)cc(OC(F)F)cc2Cl)c1=O | – | – | – | – | – | – | Drug metabolism [13]: Metabolite_Detected; Drug metabolism [14]: Metabolite_Detected
C[C@@H](C1CC1)n1cc(Cl)nc(N(C(=O)OCOC(=O)CN(C)C)c2c(Cl)cc(OC(F)F)cc2Cl)c1=O | 1720 (≈ 2950 µM) | 530 (≈ 908 µM) | Metabolite_Notdetected | – | – | – | AUC [2]: Bld; Cmax [4]: Bld
C[C@@H](C1CC1)n1cc(Cl)nc(N(C(=O)OCOC(=O)CCN)c2c(Cl)cc(OC(F)F)cc2Cl)c1=O.Cl | 1350 | 30 | – | 6.32 | 490 | 27 | –
C[C@H](N)C(=O)OCOC(=O)N(c1c(Cl)cc(OC(F)F)cc1Cl)c1nc(Cl)cn([C@@H](C)C2CC2)c1=O.Cl | 370 | 5 | – | 8.25 | 730 | 36 | –
CC(C)[C@H](N)C(=O)OCOC(=O)N(c1c(Cl)cc(OC(F)F)cc1Cl)c1nc(Cl)cn([C@@H](C)C2CC2)c1=O.Cl | 1820 | 10 | – | 7.37 | 740 | 32 | –
